According to patent US20250140406A1, “CLASSIFYING TUMORS AND PREDICTING RESPONSIVENESS” (Oncocyte Corporation, priority 2022, published 2025):
Like-named read-outs stand apart in the source and are kept apart here. Square brackets hold non-standard residues; d marks the D form. Peptide text beside a SMILES is read from it. * marks the point of attachment. dPhe(4-NHCONH2) = NC(=O)Nc1ccc(C[C@@H](N)C(=O)O)cc1; Dihydroorotyl(S) = O=C1C[C@@H](C(=O)*)NC(=O)N1; dPhe(4-Cl) = N[C@H](Cc1ccc(Cl)cc1)C(=O)O; Phe(4-NH2) = Nc1ccc(C[C@H](N)C(=O)O)cc1; d2Nal = N[C@H](Cc1ccc2ccccc2c1)C(=O)O; Lys(iPr) = CC(C)NCCCC[C@H](N)C(=O)O; dCit = NC(=O)NCCC[C@@H](N)C(=O)O; d3Pal = N[C@H](Cc1cccnc1)C(=O)O

Experiments:
[1] = tested on: cancer cell lines classified IM, MSL, M; assay: PRISM screen compound sensitivity correlated with IM, MSL and M subtype of cell lines (101 gene signature); format: cell-based
[2] = tested on: cancer cell lines, DetermaIO classes; assay: Association of PRISM compound sensitivity with DetermaIO (DTIO) cell line classes; format: cell-based
[3] = correlation of PRISM compound sensitivity with IM subtype correlation, test cell set
[4] = correlation of PRISM compound sensitivity with M subtype correlation, test cell set
[5] = correlation of PRISM compound sensitivity with MSL subtype correlation, test cell set
[6] = correlation of PRISM compound sensitivity with DTIO, test cell set
[7] = correlation of PRISM compound sensitivity with DTIO, training cell set
[8] = subtype (IM, MSL or M) with which PRISM compound sensitivity is negatively correlated, training cell set, 101 gene signature
[9] = correlation of PRISM compound sensitivity with IM subtype correlation, test cell set (188 cell lines)
[10] = correlation of PRISM compound sensitivity with M subtype correlation, test cell set (188 cell lines)
[11] = correlation of PRISM compound sensitivity with MSL subtype correlation, test cell set (188 cell lines)
[12] = correlation of PRISM compound sensitivity with DTIO (DetermaIO), test cell set (188 cell lines)
[13] = correlation of PRISM compound sensitivity with DTIO (DetermaIO), training cell set (371 cell lines)
[14] = subtype (IM, MSL or M) with which compound sensitivity is negatively correlated, training cell set (371 cell lines), 101 gene signature
[15] = subtype (IM, MSL or M) assigned to the compound by negative correlation of PRISM sensitivity with subtype, training cell set (371 cell lines), 101 gene signature

Row | Structure (SMILES) | IM Corr test [1, 3] | M Corr test [1, 4] | MSL Corr test [1, 5] | DTIO Corr test [2, 6] | DTIO Corr train [2, 7] | IM Corr test [1, 9] | M Corr test [1, 10] | MSL Corr test [1, 11] | also measured
1 | COc1ccc(CN2C(=O)C(=O)c3cc(OC(F)(F)F)ccc32)cc1 [VU0238429] | 0.04415 | −0.1868 | −0.1511 | −0.02333 | −0.07773 |  |  |  | 
2 | Cc1cc(C)c(N(Cc2ccccc2)S(=O)(=O)c2ccc(OCCNC(=O)c3cc4ccccc4o3)cc2)c(C(=O)NO)c1 [WAY-170523] | −0.0044 | −0.01887 | −0.04718 | 0.02955 | 0.0516 |  |  |  | TNBCType train [1, 8]: MSL
3 | COc1cc2ncnc(Nc3ccc(O)c(Br)c3)c2cc1OC [WHI-P154] |  |  |  | −0.06543 | −0.1245 | −0.227 | 0.2466 | 0.2152 | 
4 | C=CC(=O)Nc1cccc(Sc2nc(Nc3ccc(N4CCN(C)CC4)cc3)ncc2Cl)c1 [WZ8040] |  |  |  |  |  | −0.07504 | 0.1805 | 0.2895 | DTIO Corr test [2, 12]: 0.0423; DTIO Corr train [2, 13]: −0.1387
5 | C[C@@H](N)c1ccc(C(=O)Nc2ccnc3[nH]ccc23)cc1 [Y-39983] |  |  |  |  |  | 0.05616 | −0.1022 | −0.1761 | DTIO Corr test [2, 12]: −0.02374; DTIO Corr train [2, 13]: −0.00611
6 | Cc1cccc(NC(=O)N[C@@H]2N=C(c3ccccc3)c3ccccc3N(CC(=O)c3ccccc3C)C2=O)c1 [YM022] |  |  |  | −0.00858 | 0.03884 | −0.00497 | −0.05702 | −0.08788 | 
7 | C[C@@H]1CN(Cc2ccc(F)cc2)CCN1C(=O)COc1ccc(Cl)cc1NC(N)=O.Cl [ZK811752] |  |  |  |  |  | 0.1095 | −0.08132 | −0.00448 | DTIO Corr test [2, 12]: 0.04281; DTIO Corr train [2, 13]: 0.09953
8 | CC1(C)[C@@H](O[C@H]2O[C@H](C(=O)O)[C@@H](O)[C@H](O)[C@H]2O[C@@H]2O[C@H](C(=O)O)[C@@H](O)[C@H](O)[C@H]2O)CC[C@]2(C)[C@H]3C(=O)C=C4[C@@H]5C[C@@](C)(C(=O)O)CC[C@]5(C)CC[C@@]4(C)[C@]3(C)CC[C@@H]12 [ammonium-glycyrrhizinate] |  |  |  | −0.07896 | −0.06692 | −0.02605 | 0.0501 | 0.0971 | 
9 | CC(=O)OC[C@]12CCC(C)=C[C@H]1O[C@@H]1[C@H](O)[C@@H](OC(C)=O)[C@@]2(C)[C@]12CO2 [anguidine] |  |  |  |  |  |  |  |  | IM Corr test [1]: −0.1066; M Corr test [1]: 0.09713; MSL Corr test [1]: 0.2083; DTIO Corr test [2]: −0.124; DTIO Corr train [2]: −0.1638
10 | O=C1C(=O)N(Cc2ccc(Cl)c(Cl)c2)c2ccccc21 [apoptosis-activator-II] |  |  |  | 0.07557 | 0.02708 | 0.1037 | −0.1455 | −0.1886 | TNBCType train [1, 14]: MSL
11 | COc1ccc(C2CNC(=O)NC2)cc1O[C@H]1C[C@@H]2CC[C@H]1C2 [atizoram] |  |  |  |  |  | −0.0276 | 0.01206 | −0.09365 | TNBCType train [1, 15]: MSL; DTIO Corr test [2, 12]: 0.000749; DTIO Corr train [2, 13]: −0.04268
12 | Cc1occc(=O)c1[O-].Cc1occc(=O)c1[O-].[O]=[V+2] [bis(maltolato)oxo-vanadium(IV)] |  |  |  | 0.09031 | 0.1485 | 0.04745 | −0.1743 | −0.04621 | DTIO Corr test ([2]; correlation of compound sensitivity with DetermaIO (DTIO), test set): 0.09031; DTIO Corr train ([2]; correlation of compound sensitivity with DetermaIO (DTIO), training set): 0.1485
13 | CCCC[C@H](NC(C)=O)C(=O)N[C@H]1CC(=O)NCCCC[C@@H](C(=O)O)NC(=O)[C@H](Cc2c[nH]c3ccccc23)NC(=O)[C@H](CCCN=C(N)N)NC(=O)[C@@H](Cc2ccccc2)NC(=O)[C@H](Cc2cnc[nH]2)NC1=O [bremelanotide] |  |  |  | −0.06366 | −0.07952 | −0.04735 | 0.07264 | −0.04913 | 
14 | CCCCC1OC(=O)c2ccccc21 (centres unmarked) [butylphthalide] |  |  |  | −0.1082 | 0.01178 | −0.03693 | −0.03289 | −0.02003 | TNBCType train [1, 14]: MSL
15 | COc1ccc(Nc2nccc(NCCO)n2)cc1 [cardiogenol-c] |  |  |  |  |  | −0.05174 | −0.01984 | −0.00925 | TNBCType train ([1]; subtype (IM, MSL or M) the PRISM compound sensitivity is associated with, training cell set (371 cell lines), 101 gene signature): MSL; DTIO Corr test ([2]; correlation of PRISM compound sensitivity with DTIO, test cell set (188 cell lines)): −0.07629; DTIO Corr train ([2]; correlation of PRISM compound sensitivity with DTIO, training cell set (371 cell lines)): 0.01043
16 | CO/N=C(\C(=O)N[C@@H]1C(=O)N2C(C(=O)OCOC(=O)C(C)(C)C)=C(C)CS[C@H]12)c1csc(N)n1 [cefetamet-pivoxil] | −0.01246 | 0.001642 | −0.041 | −0.06679 | −0.1217 |  |  |  | 
17 | CC(=O)N[C@H](Cc1ccc2ccccc2c1)C(=O)N[C@H](Cc1ccc(Cl)cc1)C(=O)N[C@H](Cc1cccnc1)C(=O)N[C@@H](CO)C(=O)N[C@@H](Cc1ccc(O)cc1)C(=O)N[C@H](CCCNC(N)=O)C(=O)N[C@@H](CC(C)C)C(=O)N[C@@H](CCCNC(=N)N)C(=O)N1CCC[C@H]1C(=O)N[C@H](C)C(N)=O [cetrorelix] (Ac-[d2Nal][dPhe(4-Cl)][d3Pal]SY[dCit]LRP[dA]-NH2) |  |  |  |  |  | −0.1828 | −0.05533 | −0.07051 | TNBCType train [1, 15]: MSL; DTIO Corr test [2, 12]: −0.1344; DTIO Corr train [2, 13]: 0.03723
18 | COc1cc(-c2ccc(N=Nc3ccc4c(S(=O)(=O)[O-])cc(S(=O)(=O)[O-])c(N)c4c3O)c(OC)c2)ccc1N=Nc1ccc2c(S(=O)(=O)[O-])cc(S(=O)(=O)[O-])c(N)c2c1O.[Na+].[Na+].[Na+].[Na+] [chicago-sky-blue-6b] |  |  |  |  |  | −0.1701 | 0.1599 | 0.184 | DTIO Corr test [2, 12]: −0.07521; DTIO Corr train [2, 13]: −0.1611
19 | CCS(=O)(=O)N(C)[C@H]1c2cc(C#N)ccc2OC(C)(C)[C@@H]1O [chromanol-293B-(−)-[3R,4S]] | −0.09685 | 0.08774 | 0.1021 | −0.09957 | −0.08029 |  |  |  | 
20 | Cc1c(Cl)cccc1Nc1ncccc1C(=O)O.NCCCC[C@H](N)C(=O)O [clonixin-lysinate] |  |  |  |  |  |  |  |  | IM Corr test [1]: −0.06378; M Corr test [1]: 0.004709; MSL Corr test [1]: −0.03679; TNBCType train [1]: MSL; DTIO Corr test [2]: −0.01494; DTIO Corr train [2]: −0.00484
21 | CN(CCOP(=O)(O)O)C(=N)N [creatinol-phosphate] | −0.00785 | 0.001052 | −0.06276 | 0.02757 | −0.08518 |  |  |  | 
22 | CN[C@@H](C)[C@H]1[C@H](O)C[C@@]2(C)[C@@H]3CC[C@H]4C(C)(C)[C@@H](NC)CC[C@@]45C[C@@]35CC[C@]12C [cyclovirobuxin-d] | 0.03318 | −0.04158 | 0.04619 | 0.02667 | 0.06721 |  |  |  | 
23 | N#CCNC(=O)c1ccc(-c2ccnc(Nc3ccc(N4CCOCC4)cc3)n2)cc1 [cyt387] |  |  |  |  |  | 0.06763 | −0.1142 | −0.1416 | TNBCType train [1, 15]: MSL; DTIO Corr test [2, 12]: 0.000569; DTIO Corr train [2, 13]: −0.03421
24 | CC(=O)N[C@H](Cc1ccc2ccccc2c1)C(=O)N[C@H](Cc1ccc(Cl)cc1)C(=O)N[C@H](Cc1cccnc1)C(=O)N[C@@H](CO)C(=O)N[C@@H](Cc1ccc(NC(=O)[C@@H]2CC(=O)NC(=O)N2)cc1)C(=O)N[C@H](Cc1ccc(NC(N)=O)cc1)C(=O)N[C@@H](CC(C)C)C(=O)N[C@@H](CCCCNC(C)C)C(=O)N1CCC[C@H]1C(=O)N[C@H](C)C(N)=O [degarelix] (Ac-[d2Nal][dPhe(4-Cl)][d3Pal]S[Phe(4-NH2)](Dihydroorotyl(S))[dPhe(4-NHCONH2)]L[Lys(iPr)]P[dA]-NH2) |  |  |  | −0.01776 | 0.01996 | 0.000275 | −0.03554 | −0.05421 | TNBCType train [1, 14]: MSL
25 | CCN(CC)C(=S)[S-].O.O.O.[Na+] [ditiocarb-sodium-trihydrate] | −0.07988 | 0.03103 | −0.01951 | −0.1096 | −0.01519 |  |  |  | TNBCType train [1, 8]: MSL
26 | C[C@]12N[C@H](Cc3ccccc31)c1ccccc12 [dizocilpine-(−)] | −0.0703 | −0.00928 | −0.09183 | −0.06945 | 0.02729 |  |  |  | TNBCType train [1, 8]: MSL
